PubChem BioAssay (NCI)
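Following 48 hours of exposure in 96-well plates, responses at five concentrations were used to interpolate endpoints linearly. The concentration for full growth arrest is given as TGI.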

What was measured:
Assay in all cases: DTP human tumour cell line panel, 48 h
[1] = tested on: SR leukemia
[2] = tested on: SK-OV-3 ovarian
[3] = tested on: LOX IMVI melanoma
[4] = tested on: HCC-2998 colon
[5] = tested on: MDA-N
[6] = tested on: K-562 leukemia
[7] = tested on: MALME-3M melanoma
[8] = tested on: OVCAR-3 ovarian
[9] = tested on: A549 NSCLC
[10] = tested on: M19-MEL melanoma
[11] = tested on: NCI-H226 lung
[12] = tested on: HCT-15 colon
[13] = tested on: UACC-257 melanoma
[14] = tested on: HOP-92 NSCLC
[15] = tested on: SK-MEL-5 melanoma
[16] = tested on: HOP-18 NSCLC
[17] = tested on: SF-295 CNS
[18] = tested on: DMS 273 small cell lung
[19] = tested on: DLD-1 colon
[20] = tested on: BT-549 breast
[21] = tested on: SW-620 colon
[22] = tested on: TK-10 renal
[23] = tested on: CCRF-CEM leukemia
[24] = tested on: MOLT-4 leukemia
[25] = tested on: COLO 205 colon
[26] = tested on: MDA-MB-435
[27] = tested on: SNB-75 CNS
[28] = tested on: SF-268 CNS
[29] = tested on: U251 CNS
[30] = tested on: UACC-62 melanoma
[31] = tested on: MCF7 breast
[32] = tested on: HL-60(TB) leukemia
[33] = tested on: M14 melanoma
[34] = tested on: KM20L2 colon
[35] = tested on: A498 renal
[36] = tested on: SNB-19 CNS
[37] = tested on: HOP-62 NSCLC
[38] = tested on: RXF 393 renal
[39] = tested on: NCI/ADR-RES ovarian
[40] = tested on: DMS 114 small cell lung
[41] = tested on: T-47D breast
[42] = tested on: OVCAR-4 ovarian
[43] = tested on: NCI-H23 lung
[44] = tested on: RPMI-8226 leukemia
[45] = tested on: UO-31 renal
[46] = tested on: SK-MEL-28 melanoma
[47] = tested on: HCT-116 colon
[48] = tested on: XF 498 CNS
[49] = tested on: ACHN renal
[50] = tested on: OVCAR-5 ovarian
[51] = tested on: LXFL 529 NSCLC
[52] = tested on: 786-0 renal
[53] = tested on: HS 578T breast
[54] = tested on: SF-539 CNS
[55] = tested on: KM12 colon
[56] = tested on: HT29 colon
[57] = tested on: SN12C renal
[58] = tested on: MDA-MB-231 breast
[59] = tested on: SK-MEL-2 melanoma
[60] = tested on: EKVX NSCLC
[61] = tested on: OVCAR-8 ovarian
[62] = tested on: IGROV1 ovarian
[63] = tested on: NCI-H522 lung
[64] = tested on: DU-145 prostate
[65] = tested on: CAKI-1 renal
[66] = tested on: NCI-H460 lung
[67] = tested on: SNB-78 CNS
[68] = tested on: PC-3 prostate

## CCNCCCCNCCCCNCCCCNCCCCNCC
[1]
  TGI: > 100 µM
[2]
  TGI: > 100 µM
[3]
  TGI: > 100 µM
[4]
  TGI: > 100 µM
[5]
  TGI: 61.8 µM
[6]
  TGI: > 100 µM
[7]
  TGI: 31.5 µM
[8]
  TGI: > 100 µM
[9]
  TGI: > 100 µM
[10]
  TGI: > 100 µM
[11]
  TGI: > 100 µM
[12]
  TGI: > 100 µM
[13]
  TGI: 81.3 µM
[14]
  TGI: > 100 µM
[15]
  TGI: > 100 µM
[16]
  TGI: > 100 µM
[17]
  TGI: > 100 µM
[18]
  TGI: > 100 µM
[19]
  TGI: > 100 µM
[20]
  TGI: > 100 µM
[21]
  TGI: > 100 µM
[22]
  TGI: > 56.2 µM
[23]
  TGI: > 100 µM
[24]
  TGI: > 100 µM
[25]
  TGI: > 100 µM
[26]
  TGI: 38.6 µM
[27]
  TGI: 78.4 µM
[28]
  TGI: > 77.7 µM
[29]
  TGI: > 100 µM
[30]
  TGI: 43.8 µM
[31]
  TGI: > 100 µM
[32]
  TGI: > 100 µM
[33]
  TGI: > 100 µM
[34]
  TGI: > 100 µM
[35]
  TGI: > 100 µM
[36]
  TGI: > 100 µM
[37]
  TGI: > 100 µM
[38]
  TGI: > 52.6 µM
[39]
  TGI: > 100 µM
[40]
  TGI: > 100 µM
[41]
  TGI: > 100 µM
[42]
  TGI: > 100 µM
[43]
  TGI: > 100 µM
[44]
  TGI: > 100 µM
[45]
  TGI: > 100 µM
[46]
  TGI: 52.6 µM
[47]
  TGI: > 100 µM
[48]
  TGI: > 100 µM
[49]
  TGI: > 100 µM
[50]
  TGI: > 100 µM
[51]
  TGI: > 100 µM
[52]
  TGI: 98.6 µM
[53]
  TGI: 26.3 µM
[54]
  TGI: > 100 µM
[55]
  TGI: > 100 µM
[56]
  TGI: > 100 µM
[57]
  TGI: > 100 µM
[58]
  TGI: > 100 µM
[59]
  TGI: > 100 µM
[60]
  TGI: > 100 µM
[61]
  TGI: > 100 µM
[62]
  TGI: > 100 µM
[63]
  TGI: > 100 µM
[64]
  TGI: > 100 µM
[65]
  TGI: > 73.1 µM
[66]
  TGI: > 100 µM
[67]
  TGI: > 100 µM
[68]
  TGI: > 100 µM

## CNc1ccc(/C=C2\C=Cc3ccccc32)cc1
[1]
  TGI: > 100 µM
[2]
  TGI: > 100 µM
[3]
  TGI: 24.5 µM
[4]
  TGI: 31.4 µM
[6]
  TGI: > 100 µM
[8]
  TGI: 51.9 µM
[9]
  TGI: > 100 µM
[10]
  TGI: > 100 µM
[11]
  TGI: 57.3 µM
[12]
  TGI: > 100 µM
[13]
  TGI: > 100 µM
[14]
  TGI: 50.9 µM
[15]
  TGI: 54.3 µM
[16]
  TGI: 55.2 µM
[17]
  TGI: 99 µM
[18]
  TGI: 71.3 µM
[19]
  TGI: > 100 µM
[21]
  TGI: > 100 µM
[22]
  TGI: 54.6 µM
[23]
  TGI: > 100 µM
[24]
  TGI: > 100 µM
[25]
  TGI: 33.3 µM
[28]
  TGI: > 100 µM
[29]
  TGI: > 100 µM
[30]
  TGI: 71.9 µM
[32]
  TGI: > 100 µM
[33]
  TGI: 36.1 µM
[34]
  TGI: 35.8 µM
[35]
  TGI: 96.8 µM
[36]
  TGI: > 100 µM
[37]
  TGI: 53.7 µM
[38]
  TGI: > 100 µM
[40]
  TGI: 44.9 µM
[42]
  TGI: > 100 µM
[43]
  TGI: 57.7 µM
[44]
  TGI: > 100 µM
[45]
  TGI: 30.5 µM
[46]
  TGI: > 100 µM
[47]
  TGI: > 100 µM
[48]
  TGI: > 100 µM
[49]
  TGI: 54.5 µM
[50]
  TGI: 45 µM
[51]
  TGI: > 100 µM
[52]
  TGI: > 100 µM
[54]
  TGI: > 100 µM
[55]
  TGI: 26.4 µM
[56]
  TGI: 38.4 µM
[57]
  TGI: > 100 µM
[59]
  TGI: 42 µM
[60]
  TGI: 91.1 µM
[61]
  TGI: > 100 µM
[62]
  TGI: > 100 µM
[63]
  TGI: 25.3 µM
[65]
  TGI: > 100 µM
[66]
  TGI: 37.9 µM
[67]
  TGI: > 100 µM
